Laboratory results taken from patent US8575145B2, “Triazolopyridine compounds as PIM kinase inhibitors” (Array BioPharma Inc., priority 2008, dated 2013).
Structures can show the parent of a compound that is named as a salt.

Experiments:
Format in all cases: cell-based
[1] = test system: K562 (Ph+chronic myelogenous leukemia); experiment: Cellular Proliferation Assay, cell line B; settings: Homo sapiens; K562, 72 hours, CelltiterBlue; read-out: Cell Line B antiproliferative IC50
Experimental: (§1) The assay for determination of the antiproliferative activity of multiple Pim inhibitors in the JAK2-driven cell lines was conducted as follows. Cells were plated out to 96-well plates at an initial density of 10,000 cells/well in 95 pt. Compounds were prepared at […] in DMSO by conducting 3-fold serial dilutions to give a 10-point dosing curve having a high dose of 1000 μM. Aliquots (5 μt) of these dilutions were then transferred to the appropriate wells of the 96-well plates containing cells to yield a final DMSO concentration of 0.5%. The cells were then incubated with compound for 72 hours at 37° C., 5% CO2. CelltiterBlue reagent (Promega, Catalog #: G8080) was then added (20 μL/well) and incubated at 37° C., 5% CO2 for 1-8 hours depending on the cell line being analyzed. The plate was then quantified employing a fluorescence plate reader (Model: Gemini [Molecular Devices]; Settings: 560 nm (Ex)/590 nm (Em) 570 nm (cut-off) [CellTiter Blue Assay].
(§2) The values for each well were then converted to a percent of untreated control (POC). These POC values were then plotted as a function of compound concentration. A 4-parameter curve-fit analysis was performed for each compound dilution and an IC50 value was calculated from this curve.
(§3) Cell lines • A: PC3 (Androgen independent prostate cancer) • B: K562 (Ph+chronic myelogenous leukemia) • C: MV4-11 (Acute myelogenous leukemia) • D: BxPC3 (Pancreatic Cancer) • E: HepG2 (Hepatocellular Carcinoma) • F: BaF3 (Mouse pro-B-cell line) • G: BaF3 TEL-JAK2 (Mouse pro-B-cell transformed with TEL-JAK2 fusion) • H: BaF2 BCR-Ab1 (Mouse pro-B-cell transformed with BCR-Ab1 fusion)

CD4+ T cells [2] = experiment: T Cell in vitro Functional Assay (D): IL-22 production; settings: Mus musculus; CD4+ T cells cultured with IL-6/TGFβ, IL-23 stimulation 18 hours, ELISA
Experimental: (§4) The in vitro assays to assess the effects of the compounds of Examples 16, 18 and 26 on T cells were conducted as described in assays A, B, C and D below. CD4+ T cells were isolated from red blood cell-depleted splenocytes of C57B1/6J mice (Jackson Laboratories, catalog #000664) using CD4+ T cell isolation kit (Miltenyi, catalog #130-090-860).
In assay (D), 1,000,000 cells/mL of purified CD4+ T cells were mixed with 1 μg/mL anti-CD28, 50 ng/mL IL-6 (R&D Systems cat #406-ML-025/CF), 1 ng/mL TGFβ (R&D Systems cat #303-B2-002), 2 μg/mL anti-IL-4 (R&D Systems cat #AB-404-NA), 2 μg/mL anti-IFNγ (R&D Systems cat #AB-485-NA) and placed into plates coated with 1 μg/mL anti-CD3. After 4 days, cells were harvested, washed and 100,000 cells were plated into 96 well plate. A dilution series of compounds were prepared at 200× the final concentration in DMSO, then 10× stocks were prepared by dilution in cell culture media. 10 μL of 10× stocks were added to the cells in the 96 well plate. After 2 hours, 50 ng IL-23 (R&D Systems catalog #1887-ML-010/CF) was added to each well and 18 hours later supernatants were removed and tested for IL-22 levels by ELISA (R&D Systems catalog #M2200). ELISA plates were quantified relative to a standard curve using Molecular Devices Versamax Reader at […] and Softmax Pro software.
(§5) For each of assays A, B, C and D, the values for each well were converted to a percent of vehicle-treated (DMSO) control (POC). These POC values were plotted as a function of compound concentration and an IC50 calculated using a 4-parameter curve-fit analysis program.

CD4+ T cells [3] = experiment: T Cell in vitro Functional Assay (C): IL-4 production; settings: Mus musculus; CD4+ T cells cultured with IL-4/anti-IFNγ, anti-CD3 restimulation 18 hours, ELISA
Experimental: as §4
In assay (C), 1000000 cells/mL of purified CD4+ T cells were mixed with 1 μg/mL anti-CD28, 10 ng/mL IL-4 (R&D Systems cat #404-ML-010/CF) and 2 μg/mL anti-IFNγ (R&D Systems cat #AB-485-NA) and placed into plates coated with 1 μg/mL anti-CD3. After 5 days, cells were harvested, washed and incubated overnight at 37° 5% CO2. The following day, 50,000 cells were plated into each well of a 96 well plate. A dilution series of compounds were prepared at 200× the final concentration in DMSO, then 10×stocks were prepared by dilution in cell culture media. 10 μL of 10× stocks were added to the cells in the 96 well plate and incubated for 2 hours at 37° C., 5% CO2. Cell/compound mixtures were then transferred to well coated with 0.1 μg anti-CD3 and incubated at 37° C., 5% CO2. Culture supernatants were removed 18 hours later and tested for IL-4 levels by ELISA (R&D Systems catalog #DY404). ELISA plates were quantified relative to a standard curve using Molecular Devices Versamax Reader at […] and Softmax Pro software.
as §5

[4] = test system: BaF3 (Mouse pro-B-cell line); experiment: Cellular Proliferation Assay, cell line F; settings: BaF3, 72 hours, CelltiterBlue, read-out: Cell Line F antiproliferative IC50
Experimental: as §1, §2, §3

CD4+ T cells [5] = experiment: T Cell in vitro Functional Assay (A): proliferation; settings: Mus musculus, anti-CD3/anti-CD28, 40 hours
Experimental: as §4
In assay (A), purified CD4+ T cells were plated in 96 well plates at 90000 cells/well in 90 μL. A dilution series of the compounds of Examples 16, 18 and 26 were prepared at 100× the final concentration in DMSO and then diluted 10-fold into complete media (10× stocks). 10 μL of 10×compound stocks were added to appropriate wells of 96 well plates containing cells and incubated for 1 hour at 37° C., 5% CO2. The cell/compound mixtures were then transferred to a 96 well plate coated with anti-CD3 mAb (1 μg/mL; BD Pharmingen, catalog #553057) and soluble anti-CD28 mAb (1 μg/mL; BD Pharmingen, catalog #553294) was added. Plates were cultured at 37° C., 5% CO2 for 40 hours. 20 μL of the culture were removed for determination of proliferation using the CellTitre-Glo™ luminescent assay (Promega, Catalog #G7571) according to the manufacturer's protocol. The plate was quantified on a Packard TopCount instrument using luminescence protocol and data was analyzed using Prism software.
as §5

[6] = test system: BaF2 BCR-Ab1 (Mouse pro-B-cell transformed with BCR-Ab1 fusion); experiment: Cellular Proliferation Assay, cell line H; settings: BaF2 BCR-Ab1, 72 hours, CelltiterBlue, read-out: Cell Line H antiproliferative IC50
Experimental: as §1, §2, §3

[7] = test system: PC3 (Androgen independent prostate cancer); experiment: Cellular Proliferation Assay, cell line A; settings: PC3, 72 hours, CelltiterBlue; read-out: Cell Line A antiproliferative IC50
Experimental: as §1, §2, §3

| IC50 [1] [µM] | IC50 (CD4+ T cells [2]) [nM] | IC50 (CD4+ T cells [3]) [nM] | IC50 [4] [nM] | IC50 [7] [µM] | SMILES | IC50 (CD4+ T cells [5]) [nM] | IC50 [6] [nM] |
| --- | --- | --- | --- | --- | --- | --- | --- |
| < 10 | ≤ 1000 | ≤ 1000 | < 2000 | < 5 | c1cc(OCC2CCCNC2)c2nc(-c3nnc4ccccn34)ccc2c1 (stereo not drawn) [Example 16, 2-([1,2,4]Triazolo[4,3-a]pyridin-3-yl)-8-(piperidin-3-ylmethoxy)quinoline] | ≤ 1000 | < 5000 |
| < 5 | ≤ 1000 | ≤ 1000 | < 2000 | < 2 | CC(C)(CN)COc1cccc2ccc(-c3nnc4ccccn34)nc12 [Example 18, 3-(2-([1,2,4]Triazolo[4,3-a]pyridin-3-yl)quinolin-8-yloxy)-2,2-dimethylpropan-1-amine] | ≤ 1000 | < 2000 |

| SMILES | IC50 [1] [µM] | IC50 (CD4+ T cells [2]) [nM] | IC50 (CD4+ T cells [3]) [nM] | IC50 [4] [nM] | IC50 [7] [µM] | IC50 (CD4+ T cells [5]) [nM] | IC50 [6] [nM] |
| --- | --- | --- | --- | --- | --- | --- | --- |
| F[C@@H]1CNCCC1Oc1cccc2ccc(-c3nnc4ccccn34)nc12 (stereo in doubt) [Example 26, 2-([1,2,4]triazolo[4,3-a]pyridin-3-yl)-8-((cis)-3-fluoropiperidin-4-yloxy)quinoline dihydrochloride] | < 10 | ≤ 5000 | ≤ 5000 | < 2000 | < 5 | ≤ 5000 | < 2000 |
